Source: patent US20210363591A1, “MAPK1 MUTATIONS AND DRUG SENSITIVITY” (The Chinese University of Hong Kong, priority 2020, published 2021)

Tests used:
FaDu-MAPK1 WT xenografts = experiment: Erlotinib response of isogenic FaDu tumor xenografts expressing MAPK1-WT in nude mice
Excerpt: (§1) FaDu cells expressing MAPK1 WT, MAPK1 p.D321N and MAPK1 p.R135K respectively were inoculated into nude mice subcutaneously (8×10^5 cells per inoculation). Mice with tumor expressing respective MAPK1 WT/mutations were randomized into erlotinib (erlotinib dissolved in 10% 2-Hydroxypropyl-beta-cyclodextrin (HP-j-CD) or vehicle (10% HP-β-CD) treatment groups (N=8 tumors per group). Treatment started when tumors were palpable and reached the size ˜3×3-4×4 mm^2. Erlotinib or the vehicle control were administered by oral gavage (50 mg/kg erlotinib or the corresponding vehicle amount) for 5 consecutive days as indicated by the arrows on the X-axis. FIG. 2B: IHC staining showing membranous p-EGFR expression of these xenografts post erlotinib/vehicle treatments (N>3 per group). […] FIG. 2C: IHC staining showing corresponding pan-cytokeratin expression in these tumors post erlotinib/vehicle treatment (N>3 per group).
The VECTASTAIN Elite ABC Universal PLUS Kit Peroxidase (Horse Anti-Mouse/Rabbit IgG) (Cat: PKK-8200) was used for IHC. […]
Isogenic FaDu cells were infected with MAPK1-WT and MAPK1 mutants by retrovirus and injected into nude mice subcutaneously (8×10^5 cell per mouse, age of 4-5 weeks). […] Tumor volume was monitored and calculated by the equation: length×width^2/2 repeatedly for 5 consecutive days as indicated by the arrows on the X-axis of FIG. 2(a). […]

[1] = test system: MAPK1p.R135K mutant xenografts (FaDu); experiment: Erlotinib response of isogenic FaDu tumor xenografts expressing MAPK1 p.R135K in nude mice
Excerpt: as §1
(§2) The VECTASTAIN Elite ABC Universal PLUS Kit Peroxidase (Horse Anti-Mouse/Rabbit IgG) (Cat: PKK-8200) was used for IHC. Cytokeratin mouse antibody (DAKO, Cat: M3515, 1:500) and Anti-EGFR (phosphor Y1173) antibody [E124] (Abcam, Cat: ab32578, 1:100) were used as primary antibodies.
(§3) Isogenic FaDu cells were infected with MAPK1-WT and MAPK1 mutants by retrovirus and injected into nude mice subcutaneously (8×10^5 cell per mouse, age of 4-5 weeks). Mice injected with respective infected FaDu cells were randomized into Erlotinib treatment group or Vehicle group (2 tumors born by each mice, 4 mice per group). Treatment started at day 6 after injection with 6 dose per week until day 15. Erlotinib (dissolved in 10% HP-j-CD) or vehicle control were administered orally at a dose of 50 mg/kg. Tumor volume was monitored and calculated by the equation: length×width^2/2 repeatedly for 5 consecutive days as indicated by the arrows on the X-axis of FIG. 2(a). The mice were sacrifice at the end-point of the experiment.

[2] = test system: MAPK1p.D321N mutant tumors (FaDu xenografts); experiment: Erlotinib response of isogenic FaDu tumor xenografts expressing MAPK1 p.D321N in nude mice
Excerpt: as §1, §2, §3

SMILES: C#Cc1cccc(Nc2ncnc3cc(OCCOC)c(OCCOC)cc23)c1 [erlotinib]
- change in tumor size vs. vehicle control (FaDu-MAPK1 WT xenografts; erlotinib 50 mg/kg oral gavage, P=0.4080): did not result in any change in tumor size
- change in membranous p-EGFR signal in the tumors (IHC) (FaDu-MAPK1 WT xenografts; erlotinib 50 mg/kg oral, vs. vehicle control): did not result in any change
- tumor-negative (cytokeratin-negative) areas (IHC) ([1]; MAPK1p.R135K FaDu xenografts post erlotinib 50 mg/kg oral): noticeable increases in tumor-negative areas
- percent tumor cells bearing membranous p-EGFR staining (IHC) ([1]; MAPK1p.R135K FaDu xenografts post erlotinib 50 mg/kg oral, 90% in vehicle treated tumors): 50%
- tumor size reduction vs. vehicle treatment ([1]; MAPK1p.R135K FaDu xenografts, erlotinib 50 mg/kg oral gavage, trend, P=0.0646): 28.0%
- tumor-negative (cytokeratin-negative) areas (IHC) ([2]; MAPK1p.D321N FaDu xenografts post erlotinib 50 mg/kg oral): concomitant increases in tumor-negative areas
- membranous p-EGFR signals remaining in the tumors (IHC) ([2]; MAPK1p.D321N FaDu xenografts post erlotinib 50 mg/kg oral, untreated mutants 80-90% positive cells): less than 20%
- reduction in tumor volume vs. vehicle treatment ([2]; MAPK1p.D321N FaDu xenografts, erlotinib 50 mg/kg oral gavage, P=0.0037): 60.3%
